Reference: patent publication US20220362199A1, “ENRICHED POLYUNSATURATED FATTY ACID COMPOSITIONS” (NUSEED NUTRITIONAL US INC., priority 2019, published 2022)

Test system: LPS-stimulated human peripheral blood mononuclear cells (PBMCs)
Test: In vitro inhibition of LPS-stimulated cytokine/chemokine/growth factor production (Milliplex 38-plex)
Type: cell-based
Conditions: for inhibitory activity on inflammatory cytokines: preliminary study, LPS-stimulated PBMC; for Inhibitory scale (0-5): D1 PBMC, 1 ng/mL LPS, 0 = no or very minimal inhibition, 1 to 2.5 = IFNγ, IL-1 series, IP-10, MCP-1, 3 = TNFα also, above 3 = some T cell cytokines, 5 = all cytokines inhibited; for immunomodulatory response type: approximately 10 μM, stimulatory = signal above 130%, inhibitory = signal below 70% of LPS-stimulated control (no FFA added)

CC/C=C\C/C=C\C/C=C\C/C=C\C/C=C\CCCCCC(=O)O [DPAn-3, Docosapentaenoic acid n-3]
inhibitory activity on inflammatory cytokines (fatty acid as primary component or at higher amount in the preparation): significant inhibitory activity

CC/C=C\C/C=C\C/C=C\C/C=C\C/C=C\CCCCCC(=O)O [Syn DPA, DPA]
Inhibitory scale (0-5) (30 μM FFA preparation): 4.0
immunomodulatory response type: both stimulatory and inhibitory responses

ETA [Syn ETA]
inhibitory effect on more than half the analytes (30 μM dose, >50% reduction compared to LPS-stimulated control): strong inhibitory effect
Inhibitory scale (0-5) ([…]): 4.75
immunomodulatory response type: both stimulatory and inhibitory responses

Eicosatetraenoic acid [ETA]
inhibitory activity on inflammatory cytokines ([…]): significant inhibitory activity
